Assay results: patent publication US5100890A, “Arylmethylazoles and their salts, agents which contain these compounds, and their use” (priority 1985, dated 1992)
Read-outs that look alike come from different tables or passages of the source.

Tests used:
[1] = test system: tetrabenazine ptosis; assay: Effect on tetrabenazine ptosis (TBZ), mouse (Method 1); type: in vivo, mouse (NMRI); settings: po, 0.5 h
Protocol: (§1) The appropriate amount of a homogenate of the particular substance in aqueous carboxymethylcellulose is fed to 6 male animals by means of a gavage one hour before treatment with tetrabenazine (40 mg/kg), intraperitoneally).
(§2) 1. Test of the effect on tetrabenazine ptosis (TBZ)
(§3) Test on mice (NMRI), male, weight 19-21 g, or on rats (Wistar), male, about 120 g body weight. Preparation administered orally, homogenized in 1% strength tylose, 1 hour before tetrabenzine, 40 mg/kg, administered subcutaneously (N=6/dose). During the test, 6 animals are present together in one container. To test for upper lid ptosis, the animals are placed individually on the table top. The extent of the ptosis (0-4 points) is assessed and is expressed as a percentage of the maximum score achievable. Evaluation is carried out 30 minutes after administration of tetrabenazine.

[2] = test system: tetrabenazine ptosis; assay: Effect on tetrabenazine ptosis (TBZ), rat (Method 1); type: in vivo, rat (Wistar); settings: po, 0.5 h
Protocol: as §1, §2, §3

[3] = test system: yohimbine toxicity; assay: Potentiation of the yohimbine toxicity in mice (Method 2); type: in vivo, mouse (NMRI); settings: 1 hour before yohimbine hydrochloride 20 mg/kg s.c.; for LD50, potentiation of yohimbine toxicity (Method 2, mouse): oral, deaths after 18 hours
Protocol: The compounds I and their acid addition salts potentiate the toxicity of yohimbine in mice. Antidepressants of type I administered orally in a dose of 0.5 to 100 mg/kg increased the death rate for an otherwise non-fatal dose of yohimbine hydrochloride (20 mg/kg, administered subcutaneously).
2. Potentiation of the yohimbine toxicity in mice
The toxicity of yohimbine, a blocker of presynaptic alpha-receptors, is potentiated by antidepressants (literature: R. M. Quinton, Brit. J. Pharmac. 21, 55-56 (1963). Male mice, NMRI strain, 20-22 g, were arranged in test groups of n=10. The test preparation was suspended in 1% strength aqueous Tylose® slime and administered orally in a volume of 10 ml/kg. Control received only the vehicle.
After a pretreatment time of 1 hour, all animals received a dose of yohimbine hydrochloride, which dose, when administered alone, is non-toxic (20 mg/kg, administered subcutaneously). The dead animals were determined 18 hours after this treatment. (Calculation of the LD50 by probit analysis).

[4] = test system: stereotypes; assay: Test of the promotion of stereotypes in rats (Method 3); type: in vivo, rat (Wistar); settings: for ED50: read-out: ED50, dose at which half the maximum possible number of points is reached (Method 3, rat)
Protocol: 3. Test of the promotion of stereotypes in rats
The tests were carried out on 130-140 g male Wistar rats. The stereotypes were assessed at 15 minute intervals during the first two hours after administration of the substance, and then at half-hourly intervals up to the 6th hour. The scale below was used. […]
The number of points were calculated as a total number per 6 hours, divided by the number of observations.
The ED50 dose is the dose at which half the maximum possible number of points (5 points multiplied by the number of observations) is reached.

[5] = read-out: ED50, 50% reduction in the degree of ptosis (Method 1), mouse, p.o., 1 hour before tetrabenazine 40 mg/kg
[6] = Mus musculus, read-out: ED50, 50% reduction in the degree of ptosis (Method 1, mouse)
[7] = Rattus norvegicus, read-out: ED50, 50% reduction in the degree of ptosis (Method 1, rat)

Q: CN1Cc2c(N)cccc2C(c2ccccc2)C1 (centres unmarked) [Nomifensin, reference compound] was tested. Which ED50 [1, 5] did it give?
A: The ED50 was 0.72 mg/kg.

Q: What about the ED50 ([2]; read-out: ED50, 50% reduction in the degree of ptosis (Method 1), rat, p.o., 1 hour before tetrabenazine 40 mg/kg) of the same compound?
A: The ED50 was 2.7 mg/kg.

Q: And the “LD50, potentiation of yohimbine toxicity (Method 2, mouse)” value (“LD50, potentiation of yohimbine toxicity” for short) [3]?
A: Its value is 8.6 mg/kg.

Q: And the ED50 ([4]; Rattus norvegicus, 6 h)?
A: The ED50 was 11.9 mg/kg.

Q: How did the ED50 [1, 6] turn out when OC1(C(c2ccc3ccccc3c2)n2ccnc2)C2CC3CC(C2)CC1C3 (centres unmarked) [Example 126] was run?
A: Its ED50 is 3 mg/kg.

Q: What about the “LD50, potentiation of yohimbine toxicity” value [3] of the same compound?
A: The value was 3.2 mg/kg.

Q: How did the “LD50, potentiation of yohimbine toxicity” value [3] turn out when OC(C(c1cccc(Cl)c1)n1ccnc1)C12CC3CC(CC(C3)C1)C2 (centres unmarked) [Example 105, 1-(1-Adamantyl)-2-(3-chlorophenyl)-2-(1-imidazolyl)-ethanol] was run?
A: Its value is 8.5 mg/kg.

Q: What about the ED50 ([4]; po, rat, p.o., 6 hours) of the same compound?
A: Its ED50 is over 30 mg/kg.

Q: How did the ED50 [1, 5] turn out when Cc1cccc(C(n2ccnc2)C2(O)C3CC4CC(C3)CC2C4)c1 (centres unmarked) [Example 106, (2-Hydroxy-2-adamantyl)-1-imidazolyl-(3-tolyl)-methane] was run?
A: Its ED50 is 1.5 mg/kg.

Q: And the “LD50, potentiation of yohimbine toxicity” value [3]?
A: The value was 7 mg/kg.

Q: And the ED50 ([4]; po, rat, p.o., 6 hours)?
A: Its ED50 is over 30 mg/kg.

Q: What does the source list for O=C(O)C(O)C(O)C(=O)O.OC1(C(c2cccc(Cl)c2)n2ccnc2)C2CC3CC(C2)CC1C3 (single isomer, unassigned; (+)) [Example 168a, (+)-(3-chlorophenyl)-(2-hydroxy-2-adamantyl)-(1-imidazolyl)-methane hydrogen tartrate]?
A: ED50 [1, 6]: 2.5 mg/kg; ED50 [2, 7]: 5.5 mg/kg; LD50, potentiation of yohimbine toxicity (Method 2, mouse) [3]: 4.6 mg/kg; ED50 ([4]; Rattus norvegicus, po, 6 h): 30 mg/kg

Q: COc1ccc(C(n2ccnc2)C2(O)C3CC4CC(C3)CC2C4)cc1OC (centres unmarked) [Example 120] was tested. Which ED50 [1, 6] did it give?
A: The ED50 was 3 mg/kg.

Q: What about the “ED50 (Method 2, mouse)” value ([3]; p.o., given as ED50, 1080 min) of the same compound?
A: Its value is 3 mg/kg.

Q: Which results are given for CC(C)(C)C(O)C(c1ccc(-c2ccccc2)cc1)n1ccnc1 (centres unmarked) [Example 4, 1-(4-Biphenyl)-3,3-dimethyl-1-(1-imidazolyl)-butan-2-ol]?
A: LD50, potentiation of yohimbine toxicity (Method 2, mouse) [3]: 5.3 mg/kg; ED50 ([4]; po, rat, p.o., 6 hours): > 30 mg/kg

Q: How did the ED50 [1, 6] turn out when OC1(C(c2cccc(Cl)c2)n2ccnc2)C2CC3CC(C2)CC1C3 (racemic) [Example 25, (3-chlorophenyl)-(2-hydroxy-2-adamantyl)-(1-imidazolyl)-methane] was run?
A: The ED50 was 0.79 mg/kg.

Q: What about the ED50 [2, 7] of the same compound?
A: Its ED50 is 10 mg/kg.

Q: And the “LD50, potentiation of yohimbine toxicity” value [3]?
A: The value was 4.4 mg/kg.

Q: What about the “stereotypes (Method 3, rat), in words” value ([4]; rat, up to 300 mg/kg p.o.) of the same compound?
A: The value was “no stereotypes”.
